Assay results as given in patent US20100028419A1, “MEMBRANE(S) AND USES THEREOF” (priority 2007, published 2010).

Legend:
amoeba Chaos cells = assay: Continuous addition of DPA (C22:5) into amoeba culture medium, TEM study; format: cell-based, Chaos carolinense; conditions: 0.1 mM final concentration, fed Chaos cells with Paramecium present, 3 additions on alternate days, fixed at day 5
Protocol: All-cis-4,7,10,13,16 Docosapentaneoic Acid (DPA, C22:5n-6) (Sigma) and Cis-7,10,13,16,19 DPA (C22:5n-3) (Sigma) were dissolved in Diethyl Ether and added to the amoeba culture media at a final concentration of 0.1 mM. DPA (n-3) and DPA (n-6) were added separately after amoeba washing and in the presence of the food organisms (Paramecium multimicronucleatum). The procedure was performed every alternative day for a total of 3 times according to the regular feeding schedule. At day 5 post-DPA treatment Chaos cells were fixed in 2.5% glutaraldehyde for TEM processing according to the procedure described in Example 6.

MCF-7 cells = assay: In vitro transfection: uptake of fragmented ODN-cubic membrane complexes, fluorescence microscopy and TEM; format: cell-based, human; conditions: 5 h
Protocol: Isolated mitochondria pellets (from fed, 10 days starved Chaos cells and mice liver) from Example 1 and transfected MCF-7 cell pellet prepared according to Example 4 were studied by the conventional TEM technique. Samples in the pellet forms were first fixed individually with 2.5% glutaraldehyde in 1×PBS at 4° C. After washing 4 times with 1×PBS buffer over 1 h to remove glutaraldehyde, the samples were post-fixed with 1% osmium tetroxide in 1× PBS buffer (pH 7.4) for 20 min at room temperature. The specimens were then washed 4 times with the 1×PBS buffer at 4° C. Thereafter 3% gelatin in PBS was added for 30 min before spinning down to collect the pellets at 2,500 rpm for 5 min. The specimens were stored at 4° C. overnight and the steps of adding 2.5% glutaraldehyde in PBS and washing with PBS were repeated for another cycle. The bigger specimens were trimmed into small cubes (1 mm in length) and washed with distilled water for 5 min. Dehydration through ethanol series was done using ethanol of 25%, 50%, 75%, 95% and 100% for 10 min each at room temperature. The specimens were then infiltrated with 100% acetone: resin in 1:1 ratio for 30 min at room temperature and with 100% acetone: resin in 1:6 ratio overnight. […]
There were three negative controls. […] The remaining cells were viewed 5 h post-transfection under the fluorescence microscope for the uptake of tagged-ODNs.

| Compound | inner mitochondrial membrane transformation to cubic organization (TEM) (amoeba Chaos cells) | inclusion bodies in cells (TEM) (MCF-7 cells) |
| --- | --- | --- |
| CCCCC/C=C\C/C=C\C/C=C\C/C=C\C/C=C\CCC(=O)O [DPA (n-6), All-cis-4,7,10,13,16 Docosapentaneoic Acid] | enhanced their inner mitochondrial membrane transformation from random tubular (A) to cubic organization (D) | – |
| CC/C=C\C/C=C\C/C=C\C/C=C\C/C=C\CCCCCC(=O)O [DPA (n-3), Cis-7,10,13,16,19 DPA] | did not have the same drastic effects on the inner mitochondrial membrane organization | – |
| 5′ tct ccc agc gtg cgc cat 3′ (DNA TCTCCCAGCGTGCGCCAT; chemistry not given here) [naked ODNs] | – | no inclusion bodies observed |
